We go through one compound from patent US5723666A, “Oxime substituted tetrahydronaphthalene derivatives having retinoid and/or retinoid antagonist-like biological activity” (Allergan, priority 1996, dated 1998).

Usually Kd stands for a measure of binding affinity in units of concentration. Low values mean a tighter complex, high ones a looser complex.

Structures are written as SMILES.

In this experiment the target is T1, RARα (Homo sapiens, UniProt P10276).
T1 sequence (P10276 1-462): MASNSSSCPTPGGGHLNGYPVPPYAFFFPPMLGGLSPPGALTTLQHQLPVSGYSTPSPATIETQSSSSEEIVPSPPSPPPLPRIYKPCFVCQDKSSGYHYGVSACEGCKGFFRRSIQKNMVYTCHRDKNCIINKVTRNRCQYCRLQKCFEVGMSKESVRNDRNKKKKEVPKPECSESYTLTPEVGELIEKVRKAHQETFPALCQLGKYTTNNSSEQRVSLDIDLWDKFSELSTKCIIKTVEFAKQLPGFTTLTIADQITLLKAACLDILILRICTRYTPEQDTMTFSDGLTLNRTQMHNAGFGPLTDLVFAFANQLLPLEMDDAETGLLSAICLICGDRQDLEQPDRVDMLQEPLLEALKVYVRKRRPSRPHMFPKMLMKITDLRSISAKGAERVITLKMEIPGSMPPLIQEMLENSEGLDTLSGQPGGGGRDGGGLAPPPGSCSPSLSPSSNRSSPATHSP
In words: Ligand Binding Assay, RARα. The source says:
Other assays described below, measure the ability of the compounds of the present invention to bind to, and/or activate various retinoid receptor subtypes. When in these assays a compound binds to a given receptor subtype and activates the transcription of a reporter gene through that subtype, then the compound is considered an agonist of that receptor subtype. […] In the below described assays the ability of the compounds to bind to RARα, RARβ, RARγ, RXRα, RXRβ and RXRγ receptors, and the ability or inability of the compounds to activate transcription of a reporter gene through these receptor subtypes can be tested.
A holoreceptor transactivation assay and a ligand binding assay which measure the antagonist/agonist like activity of the compounds of the invention, or their ability to bind to the several retinoid receptor subtypes, respectively, are described in published PCT Application No. WO WO93/11755 (particularly on pages 30-33 and 37-41) published on Jun. 24, 1993, the specification of which is also incorporated herein by reference. A description of the holoreceptor transactivation assay is also provided below.
CV1 cells (5,000 cells/well) were transfected with an RAR, reporter plasmid MTV-TREp-LUC (50 ng) along with one of the RAR expression vectors (10 ng) in an automated 96-well format by the calcium phosphate procedure of Heyman et al. Cell 68, 397-406, (1992). […]

In turn, `CO/N=C1\CCC(C)(C)c2ccc(/N=N/c3ccc(C(=O)O)cc3)cc21` [Compound D4] had a Kd of 1000 nM.
